Laboratory results reported in paper PMC10257182, “Discovery of senolytics using machine learning” (Nature Communications, 2023).
Several values for one entry are separate records, joined by “and”; a condition that tells them apart may be missing. Identical values can stand only once.

Assays:
Format in all cases: cell-based, human
[1] = system: non-senescent control IMR90 ER:RAS cells; assay: Nuclei count (Hoechst, high content imaging) senolytic assay, OIS model, non-senescent control cells; details: for Mean % Cell Survival: mean n=3 (Fig 3C)
In short: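 Senescence in IMR90 ER:RAS fibroblasts induced with 100 nM 4-OHT; non-senescent and senescent cells treated 72 h with compounds, 10-point […] range 10 μM–10 nM, triplicate. Cells fixed, permeabilised, Hoechst-stained; total nuclei per well counted by high-content imaging versus untreated controls as cell-death readout.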

[2] = system: senescent A549 cells (etoposide-induced); assay: Nuclei count senolytic assay, therapy-induced senescence (TIS) model, senescent cells; details: Senescent cells, mean
In short: (§1)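 A549 cells were made senescent with 100 μM etoposide for 48 h, then kept three days in normal media; non-senescent A549 served as controls. Compounds were dosed as a 10-point […] series (10 μM to 10 nM final) for 72 h in triplicate. Hoechst-stained nuclei were counted by imaging after fixation.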

[3] = system: non-senescent control A549 cells; assay: Nuclei count senolytic assay, TIS model, non-senescent control cells; details: Control cells, mean
In short: as §1

## CC(C)=CCc1c(O)cc2oc3cc(O)c(O)c(CC=C(C)C)c3c(=O)c2c1O [Gamma mangostin, gamma mangostin]
[1]; Control cells, log (dose) [M] -5, individual replicates, SUP FIG 4C
  % Cell Survival: 83.3507% and 108.05% and 79.5367% and 95.8097%
[1]; Control cells, log (dose) [M] -5.33, individual replicates, SUP FIG 4C
  % Cell Survival: 87.0968% and 96.0317% and 81.9498% and 89.128%
[1]; Control cells, log (dose) [M] -5.66, individual replicates, SUP FIG 4C
  % Cell Survival: 85.64% and 147.846% and 85.3282% and 103.058%
[1]; Control cells, log (dose) [M] -6, individual replicates, SUP FIG 4C
  % Cell Survival: 61.4984% and 93.424% and 84.0734% and 96.1495%
[1]; Control cells, log (dose) [M] -6.33, individual replicates, SUP FIG 4C
  % Cell Survival: 89.5942% and 95.6916% and 116.216% and 74.9717%
[1]; Control cells, log (dose) [M] -6.66, individual replicates, SUP FIG 4C
  % Cell Survival: 89.282% and 97.3923% and 91.7954% and 95.8097%
[1]; Control cells, log (dose) [M] -7, individual replicates, SUP FIG 4C
  % Cell Survival: 92.924% and 97.5057% and 90.1544% and 99.6602%
[1]; Control cells, log (dose) [M] -7.33, individual replicates, SUP FIG 4C
  % Cell Survival: 93.7565% and 97.2789% and 93.4363% and 109.513%
[1]; Control cells, log (dose) [M] -7.66, individual replicates, SUP FIG 4C
  % Cell Survival: 96.9823% and 99.8866% and 98.9382% and 108.494%
[1]; Control cells, log (dose) [M] -8, individual replicates, SUP FIG 4C
  % Cell Survival: 107.7% and 97.0522% and 93.3398% and 109.173%
[1]; Control, log (dose) [M] -5, 72 h
  Mean % Cell Survival: 91.6867%
[1]; Control, log (dose) [M] -5.33, 72 h
  Mean % Cell Survival: 88.5516%
[1]; Control, log (dose) [M] -5.66, 72 h
  Mean % Cell Survival: 105.468%
[1]; Control, log (dose) [M] -6, 72 h
  Mean % Cell Survival: 83.7863%
[1]; Control, log (dose) [M] -6.33, 72 h
  Mean % Cell Survival: 94.1184%
[1]; Control, log (dose) [M] -6.66, 72 h
  Mean % Cell Survival: 93.5698%
[1]; Control, log (dose) [M] -7, 72 h
  Mean % Cell Survival: 95.0611%
[1]; Control, log (dose) [M] -7.33, 72 h
  Mean % Cell Survival: 98.4962%
[1]; Control, log (dose) [M] -7.66, 72 h
  Mean % Cell Survival: 101.075%
[1]; Control, log (dose) [M] -8, 72 h
  Mean % Cell Survival: 101.816%
[1]; Control, log (dose) [M] -5
  % Cell Survival: 92.5926% and 96.693% and 91.9267%
[1]; Control, log (dose) [M] -5.33
  % Cell Survival: 94.2308% and 86.4127% and 82.768%
[1]; Control, log (dose) [M] -5.66
  % Cell Survival: 90.6695% and 83.6808% and 81.9539%
[1]; Control, log (dose) [M] -6
  % Cell Survival: 85.6125% and 87.1316% and 81.6147%
[1]; Control, log (dose) [M] -6.33
  % Cell Survival: 95.7977% and 84.3997% and 85.8209%
[1]; Control, log (dose) [M] -6.66
  % Cell Survival: 91.7379% and 85.9813% and 84.5319%
[1]; Control, log (dose) [M] -7
  % Cell Survival: 95.6553% and 92.739% and 90.502%
[1]; Control, log (dose) [M] -7.33
  % Cell Survival: 96.8661% and 91.0137% and 90.4342%
[1]; Control, log (dose) [M] -7.66
  % Cell Survival: 96.7236% and 96.7649% and 94.3691%
[1]; Control, log (dose) [M] -8
  % Cell Survival: 100.783% and 103.882% and 95.7938%
[2]; log (dose) [M] -5
  Mean % Cell Survival: 104.426%
[2]; log (dose) [M] -5.33
  Mean % Cell Survival: 105.938%
[2]; log (dose) [M] -5.66
  Mean % Cell Survival: 108.604%
[2]; log (dose) [M] -6
  Mean % Cell Survival: 101.088%
[2]; log (dose) [M] -6.33
  Mean % Cell Survival: 110.065%
[2]; log (dose) [M] -6.66
  Mean % Cell Survival: 106.259%
[2]; log (dose) [M] -7
  Mean % Cell Survival: 114.559%
[2]; log (dose) [M] -7.33
  Mean % Cell Survival: 114.138%
[2]; log (dose) [M] -7.66
  Mean % Cell Survival: 105.957%
[2]; log (dose) [M] -8
  Mean % Cell Survival: 105.108%
[3]; log (dose) [M] -5
  Mean % Cell Survival: 93.7374%
[3]; log (dose) [M] -5.33
  Mean % Cell Survival: 87.8038%
[3]; log (dose) [M] -5.66
  Mean % Cell Survival: 85.4347%
[3]; log (dose) [M] -6
  Mean % Cell Survival: 84.7862%
[3]; log (dose) [M] -6.33
  Mean % Cell Survival: 88.6728%
[3]; log (dose) [M] -6.66
  Mean % Cell Survival: 87.417%
[3]; log (dose) [M] -7
  Mean % Cell Survival: 92.9654%
[3]; log (dose) [M] -7.33
  Mean % Cell Survival: 92.7713%
[3]; log (dose) [M] -7.66
  Mean % Cell Survival: 95.9525%
[3]; log (dose) [M] -8
  Mean % Cell Survival: 100.153%
